{
  "source": "patent US20250101004A1",
  "about": "“NOVEL KALIRIN INHIBITORS FOR REGULATION OF SYNAPTIC PLASTICITY AND NEUROPATHIC PAIN TREATMENT” (Northwestern University, priority 2022, published 2025)",
  "key": {"HEK293T cells": {"test_system": "HEK293T cells", "conditions": "24 hours, Cell-titre Glo", "protocol": "Cell viability was assessed by cell-titre glo assay. […] Indicated values indicate the required concentration to reduce viability by 50%.\nCompound was incubated with heterologous cells (HEK293T) for 24 hours, and cell death was measured using the Cell-titre Glo assay."}, "kalirin GEF domain [1]": {"molecular_target": "T1, kalirin GEF domain (Homo sapiens, UniProt O60229)", "experiment": "Fluorescence thermal shift (FTS) binding to kalirin GEF domain"}, "kalirin": {"molecular_target": "T2, kalirin (Homo sapiens, UniProt O60229)", "T2 construct": "intrinsic activity of RAC1 in the absence of kalirin's GEF domain (No GEF)", "experiment": "Miniaturized high-throughput GEF assay with bodipy-GDP loaded RAC1", "assay_type": "biochemical", "protocol": "FIG. 11 illustrates that reaction rates from FIG. 10 were assessed and plotted against concentration.\nThis was assessed using a miniaturized high-throughput GEF assay, utilizing fluorescently labelled GDP (bodipy-GDP) loaded RAC1."}, "[2]": {"test_system": "primary cultured rat neurons", "experiment": "Multi-electrode array (MEA) analysis of electrical activity of primary cultured neurons", "assay_type": "cell-based", "protocol": "FIG. 16A-16F show multi-electrode array analyses of the electrical activity of primary cultured neurons was assessed in the presence of compound B04, alongside the known RAC1 inhibitor NSC23776. […] Dose response analysis confirmed activity of B04 (123 μM, FIG. 16D and FIG. +16F). However, NSC23766 (FIG. 16C and FIG. 16E) had 10× efficacy (7.4 μM) compared to previous results.\nIndicated PP01 analogues were incubated with rat primary cultured cortical neurons at 50 μM to assess the ability to recapitulate PP01s ability to inhibit neuronal activity.\n48 well multi-electrode arrays (MEAs) were seeded with 50,000 primary cultured rat neurons and grown to 3WIV. Cells were incubated with NSC23766 or B04 at 50 and 100 μM for 4 hours alongside vehicle control (1% DMSO, FIG. 16A-16B). Neuronal activity was assessed in terms of weighted mean firing rate (number of events per second across active electrodes) and burst frequency (>5 events in 100 ms within a single electrode) and network burst frequency (FIG. 16A-16D).\nDRC curve analyses of NS23766 (FIGS. 16C and 16E) and B04 (FIGS. 16D and 16F) was performed to assess compound efficacy. […] This is likely due to reported off-target inhibition of NMDAr (Hou et al 2014).\nPlate was treated with vehicle control or B04 for 4 hours. The % change from baseline was recorded. […] Drug resistance from overexpression is a known phenomenon, supporting target engagement (Palmer et al, 2014)."}, "kalirin GEF domain [3]": {"molecular_target": "T1, kalirin GEF domain", "experiment": "Cellular GEF assay (RAC-Glisa) in cells transfected with kalirin-GEF domain", "assay_type": "cell-based", "design": "Cells were transfected with the kalirin-GEF domain; expressed in transfected cells; host or cells: HEK293T (inferred from the same paragraph's toxicity test; the sentence on transfection says only 'Cells')", "source_text": "Known compound, NSC23766 (FIGS. 14A and 14C), was run alongside B04 (FIGS. 14B and 14D) to confirm GEF inhibition (IC50 of NSC23766 matches published results)."}},
  "note": "Where two headings read alike, the source gives them in different places.",
  "data": [
    {"smiles": "O=C1C=CC(=O)N1c1cccc([N+](=O)[O-])c1", "note": "[NPPD]", "values": [
      {"measurement": "cellular toxicity / tolerability", "setting": "HEK293T cells", "value": "Only NSC23766 and B04 were well tolerated"},
      {"measurement": "binding to kalirin by FTS (thermodynamic stability of kalirin GEF domain)", "setting": "kalirin GEF domain [1]", "value": "not bind to kalirin"},
      {"measurement": "inhibition of kalirin biochemical GEF activity", "setting": "kalirin", "value": "inhibited GEF activity"}
    ]},
    {"smiles": "O=C1C=C2C(=CCOC2O)O1", "note": "(stereo not shown) [patulin]", "values": [
      {"measurement": "binding to kalirin by FTS (thermodynamic stability of kalirin GEF domain)", "setting": "kalirin GEF domain [1]", "value": "bond to kalirin"},
      {"measurement": "inhibition of kalirin biochemical GEF activity", "setting": "kalirin", "value": "inhibited GEF activity"}
    ]},
    {"smiles": "Cc1cc2cc(Nc3ccnc(Nc4ccc5[nH]c(C)cc5c4)n3)ccc2[nH]1", "note": "[AZA1]", "values": [
      {"measurement": "cellular toxicity / tolerability", "setting": "HEK293T cells", "value": "Only NSC23766 and B04 were well tolerated"},
      {"measurement": "binding to kalirin by FTS (thermodynamic stability of kalirin GEF domain)", "setting": "kalirin GEF domain [1]", "value": "not bind to kalirin"},
      {"measurement": "inhibition of kalirin biochemical GEF activity", "setting": "kalirin", "value": "inhibited GEF activity"}
    ]},
    {"smiles": "CC(C)c1cn2c(NC(=O)Cc3c[nH]c4ccccc34)cccc2n1", "note": "[NW12, 2-(1H-indol-3-yl)-N-[2-(propan-2-yl)-1H-imidazo[1,2-a]pyridine-5-yl]acetamide]", "values": [
      {"measurement": "IC50", "setting": "[2]; PP01 analogues, FIG. 31A-31C, read-out: IC50, inhibition of neuronal activity", "value": "< 5", "unit": "µM"},
      {"measurement": "inhibition of neuronal activity", "setting": "[2]; rat primary cultured cortical neurons, 50 μM, 4 and 24 hours", "value": "inhibited activity robustly"},
      {"measurement": "cellular toxicity / tolerability", "setting": "HEK293T cells", "value": "suitable for in vitro cellular studies"}
    ]},
    {"smiles": "CCN(CC)CCCC(C)Nc1nc(C)cc(Nc2ccc3nc(C)cc(N)c3c2)n1", "note": "(stereo not shown) [NSC23766]", "values": [
      {"measurement": "burst frequency", "setting": "[2]; 4 hours, 50 and 100 μM", "value": "reduced"},
      {"measurement": "firing rate (weighted mean firing rate)", "setting": "[2]; 4 hours, 50 and 100 μM", "value": "reduced"},
      {"measurement": "inhibitory efficacy in neurons compared to published reports and cellular activity", "setting": "[2]; fold greater", "value": 10, "unit": "×"},
      {"measurement": "IC50", "setting": "[2]; primary cultured neurons, 4 hours treatment, FIG. 16C-16F, read-out: dose response activity on neuronal electrical activity", "value": 7.4, "unit": "µM"},
      {"measurement": "inhibition of kalirin activity (RAC1 activation)", "setting": "kalirin GEF domain [3]", "value": "inhibit kalirin activity"},
      {"measurement": "cellular toxicity / tolerability", "setting": "HEK293T cells", "value": "well tolerated"},
      {"measurement": "binding to kalirin by FTS (thermodynamic stability of kalirin GEF domain)", "setting": "kalirin GEF domain [1]", "value": "not bind to kalirin"},
      {"measurement": "inhibition of kalirin biochemical GEF activity", "setting": "kalirin", "value": "inhibited GEF activity"}
    ]}
  ]
}
